Measured values as given in US20080194628A1, “Donepezil Salts Suitable for the Preparation of Pharmaceutical Compositions” (priority 2004, published 2008).

Details: comparison with donepezil hydrochloride tablet

Q: Which “Stability of tablets prepared from the salt, compared with the tablet prepared from the hydrochloride salt” value does the source give for COc1cc2c(cc1OC)C(=O)C(CC1CCN(Cc3ccccc3)CC1)C2.O=S(=O)(O)O (stereo not shown) [Example 12, donepezil sulfate (1:1)] here?
A: The value was “practically identical to that of the tablet prepared from the hydrochloride salt”.
